{"source": "patent US20110028686A1", "about": "“Protein binding miniature proteins” (Yale University, priority 2000, published 2011)", "key": {"catalytic subunit of PKA": {"target": "catalytic subunit of PKA (Homo sapiens, UniProt P17612)", "test": "Fluorescence polarization, affinity for PKA catalytic subunit", "format": "binding", "settings": "presence of 100 μM ATP"}, "[1]": {"target": "protein kinase Cα (PKC-α) (Homo sapiens, UniProt P17252)", "test": "Phosphotransferase assay, PKC-α", "format": "biochemical", "settings": "1-K252a up to 100 nM; 1 up to 5 μM"}, "[2]": {"tested_on": "cGMP-dependent protein kinase (PKG)", "test": "Phosphotransferase assay, PKG", "format": "biochemical", "settings": "1 up to 5 μM"}, "Akt kinase (PKB)": {"target": "Akt kinase (PKB) (Homo sapiens, UniProt P31749)", "sequence (P31749 whole entry, species assumed)": "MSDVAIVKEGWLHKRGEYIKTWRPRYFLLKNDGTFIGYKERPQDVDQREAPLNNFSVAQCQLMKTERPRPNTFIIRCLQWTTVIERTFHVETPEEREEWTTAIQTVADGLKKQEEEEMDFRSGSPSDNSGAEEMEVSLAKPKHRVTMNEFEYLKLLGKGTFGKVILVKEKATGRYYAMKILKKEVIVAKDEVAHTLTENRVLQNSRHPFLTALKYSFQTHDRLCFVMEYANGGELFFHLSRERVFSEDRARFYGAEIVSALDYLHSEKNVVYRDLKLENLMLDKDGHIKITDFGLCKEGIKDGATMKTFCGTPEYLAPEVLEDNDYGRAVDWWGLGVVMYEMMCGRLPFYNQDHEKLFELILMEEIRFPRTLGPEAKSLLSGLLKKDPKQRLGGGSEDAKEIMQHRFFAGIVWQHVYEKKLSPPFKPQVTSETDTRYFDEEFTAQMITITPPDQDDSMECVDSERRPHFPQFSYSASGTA", "test": "Phosphotransferase assay, PKB", "format": "biochemical", "settings": "1-K252a up to 100 nM; 1 up to 5 μM"}, "PKA": {"target": "PKA (Homo sapiens, UniProt P17612)", "test": "PKA phosphotransferase assay, streptavidin-matrix capture of [32P]-phosphorylated substrates", "format": "biochemical", "settings": "ATP and peptide substrate below KM"}, "[3]": {"tested_on": "Ca++/calmodulin kinase II (CamKII)", "test": "Phosphotransferase assay, CamKII", "format": "biochemical", "settings": "1-K252a up to 100 nM; 1 up to 5 μM"}, "CBP KIX Y658F": {"target": "T1, CBP KIX Y658F (Mus musculus, UniProt P45481, Y658F)", "T1 construct": "made in house; host or cells: E. coli BL21(DE3) pArg", "T1 sequence (P45481 586-665 Y658F limits assumed)": "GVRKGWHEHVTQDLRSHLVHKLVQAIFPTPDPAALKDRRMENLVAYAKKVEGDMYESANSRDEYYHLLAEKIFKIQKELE", "test": "Equilibrium fluorescence polarization, CBP KIX variant Y658F", "format": "binding"}, "CBP KIX K662A": {"target": "T2, CBP KIX K662A (Mus musculus, UniProt P45481, K662A)", "T2 construct": "made in house; host or cells: E. coli BL21(DE3) pArg", "T2 sequence (P45481 586-665 K662A limits assumed)": "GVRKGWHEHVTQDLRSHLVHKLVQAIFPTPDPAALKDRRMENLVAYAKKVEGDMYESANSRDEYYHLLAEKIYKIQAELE", "test": "Equilibrium fluorescence polarization, CBP KIX variant K662A", "format": "binding"}, "CBP KIX L599A": {"target": "T3, CBP KIX L599A (Mus musculus, UniProt P45481, L599A)", "T3 construct": "made in house; host or cells: E. coli BL21(DE3) pArg", "T3 sequence (P45481 586-665 L599A limits assumed)": "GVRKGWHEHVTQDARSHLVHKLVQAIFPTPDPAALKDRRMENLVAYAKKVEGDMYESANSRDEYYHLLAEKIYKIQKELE", "test": "Equilibrium fluorescence polarization, CBP KIX variant L599A", "format": "binding"}, "CBP KIX L603A": {"target": "T4, CBP KIX L603A (Mus musculus, UniProt P45481, L603A)", "T4 construct": "made in house; host or cells: E. coli BL21(DE3) pArg", "T4 sequence (P45481 586-665 L603A limits assumed)": "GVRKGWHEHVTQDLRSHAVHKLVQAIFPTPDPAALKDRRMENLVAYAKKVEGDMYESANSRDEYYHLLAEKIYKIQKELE", "test": "Equilibrium fluorescence polarization, CBP KIX variant L603A", "format": "binding"}, "CBP KIX Y650A": {"target": "T5, CBP KIX Y650A (Mus musculus, UniProt P45481, Y650A)", "T5 construct": "made in house; host or cells: E. coli BL21(DE3) pArg", "T5 sequence (P45481 586-665 Y650A limits assumed)": "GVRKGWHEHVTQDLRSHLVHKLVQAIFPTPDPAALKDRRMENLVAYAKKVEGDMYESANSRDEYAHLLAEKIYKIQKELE", "test": "Equilibrium fluorescence polarization, CBP KIX variant Y650A", "format": "binding"}, "CBP KIX LL652-3AA": {"target": "T6, CBP KIX LL652-3AA (Mus musculus, UniProt P45481, L652A/L653A)", "T6 construct": "made in house; host or cells: E. coli BL21(DE3) pArg", "T6 sequence (P45481 586-665 L652A/L653A)": "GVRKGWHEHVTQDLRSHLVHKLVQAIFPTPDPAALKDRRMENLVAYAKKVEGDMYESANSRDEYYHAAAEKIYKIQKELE", "test": "Equilibrium fluorescence polarization, CBP KIX variant LL652-3AA", "format": "binding"}, "CBP KIX I657A": {"target": "T7, CBP KIX I657A (Mus musculus, UniProt P45481, I657A)", "T7 construct": "made in house; host or cells: E. coli BL21(DE3) pArg", "T7 sequence (P45481 586-665 I657A limits assumed)": "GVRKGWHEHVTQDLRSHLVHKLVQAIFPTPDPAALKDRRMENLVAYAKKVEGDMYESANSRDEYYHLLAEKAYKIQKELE", "test": "Equilibrium fluorescence polarization, CBP KIX variant I657A", "format": "binding"}, "CBP KIX K606A": {"target": "T8, CBP KIX K606A (Mus musculus, UniProt P45481, K606A)", "T8 construct": "made in house; host or cells: E. coli BL21(DE3) pArg", "T8 sequence (P45481 586-665 K606A limits assumed)": "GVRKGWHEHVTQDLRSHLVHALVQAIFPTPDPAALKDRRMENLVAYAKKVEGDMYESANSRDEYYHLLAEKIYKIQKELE", "test": "Equilibrium fluorescence polarization, CBP KIX variant K606A", "format": "binding"}, "[4]": {"target": "T9, HisKIX (His-tagged CBP KIX domain) (Mus musculus, UniProt P45481)", "T9 construct": "The CBP KIX-coding region (residues 586 to 672) of pGEX-KT KIX 10-672; made in house; host or cells: E. coli BL21(DE3) pArg", "T9 sequence (P45481 586-672)": "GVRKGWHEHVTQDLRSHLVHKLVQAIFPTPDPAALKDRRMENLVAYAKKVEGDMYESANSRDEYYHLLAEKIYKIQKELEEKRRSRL", "test": "Equilibrium fluorescence polarization, HisKIX binding"}}, "note": "Square brackets hold non-standard residues; d marks the D form. Peptide text beside a SMILES is read from it. * marks the point of attachment. Fluorescein(5-NHCOCH2) = O=C(C*)Nc1ccc2c(c1)C(=O)OC21c2ccc(O)cc2Oc2cc(O)ccc21; pS = N[C@@H](COP(=O)(O)O)C(=O)O", "data": [{"smiles": "CC[C@H](C)[C@H](NC(=O)[C@H](C)NC(=O)[C@H](CC(N)=O)NC(=O)[C@H](CCCNC(=N)N)NC(=O)[C@H](CCCNC(=N)N)NC(=O)CNC(=O)[C@@H](NC(=O)[C@@H](NC(=O)CNC(=O)[C@H](CC(C)C)NC(=O)[C@H](Cc1ccc(O)cc1)NC(=O)[C@@H](NC(=O)[C@H](Cc1ccccc1)NC(=O)[C@H](CC(C)C)NC(=O)[C@H](C)NC(=O)[C@H](Cc1ccc(O)cc1)NC(=O)[C@@H](NC(=O)[C@H](Cc1ccccc1)NC(=O)[C@H](CCCNC(=N)N)NC(=O)[C@@H](NC(=O)[C@H](CC(C)C)NC(=O)[C@H](CC(=O)O)NC(=O)[C@H](CCC(=O)O)NC(=O)[C@@H](NC(=O)[C@@H]1CCCN1C(=O)[C@H](C)NC(=O)[C@H](CC(=O)O)NC(=O)[C@H](CC(=O)O)NC(=O)CNC(=O)[C@@H]1CCCN1C(=O)[C@H](Cc1ccc(O)cc1)NC(=O)[C@@H](NC(=O)[C@@H]1CCCN1C(=O)[C@H](CCC(N)=O)NC(=O)[C@H](CO)NC(=O)[C@@H]1CCCN1C(=O)CN)[C@@H](C)O)C(C)C)[C@@H](C)CC)[C@@H](C)O)[C@@H](C)CC)C(C)C)C(C)C)C(=O)N[C@@H](Cc1c[nH]cn1)C(=O)N[C@@H](CC(=O)O)C(=O)N[C@@H](CSCC(=O)Nc1ccc2c(c1)C(=O)OC21c2ccc(O)cc2Oc2cc(O)ccc21)C(N)=O", "note": "[2^Flu] (H-GPSQPTYPGDDAPVEDLIRFTYALFIYLGVVGRRNAIHDC(Fluorescein(5-NHCOCH2))-NH2; N-terminus and C-terminus assumed)", "values": [{"measurement": "Kd", "setting": "catalytic subunit of PKA", "value": "570 ± 123", "unit": "nM"}]}, {"smiles": "COC(=O)[C@@]1(O)C[C@H]2O[C@]1(C)n1c3ccccc3c3c4c(c5c6ccccc6n2c5c31)C(=O)NC4", "note": "[K252a, reference compound]", "values": [{"measurement": "inhibition of PKC-α phosphotransferase activity", "setting": "[1]", "value": "inhibited by K252a"}, {"measurement": "inhibition of PKG phosphotransferase activity", "setting": "[2]", "value": "inhibited by K252a"}, {"measurement": "inhibition of PKB phosphotransferase activity", "setting": "Akt kinase (PKB)", "value": "inhibited by K252a"}, {"measurement": "IC50", "setting": "PKA", "value": "0.14 ± 0.003", "unit": "nM"}, {"measurement": "inhibition of CamKII phosphotransferase activity", "setting": "[3]", "value": "inhibited by K252a"}]}, {"smiles": "CC[C@H](C)[C@H](NC(=O)[C@H](CCCCN)NC(=O)[C@H](CCCNC(=N)N)NC(=O)[C@H](Cc1ccc(O)cc1)NC(=O)[C@H](COP(=O)(O)O)NC(=O)[C@@H]1CCCN1C(=O)[C@H](CCCNC(=N)N)NC(=O)[C@H](CCCNC(=N)N)NC(=O)[C@H](CO)NC(=O)[C@H](CC(C)C)NC(=O)[C@@H](NC(=O)[C@H](CCC(=O)O)NC(=O)[C@H](CCCNC(=N)N)NC(=O)[C@H](CCCNC(=N)N)NC(=O)[C@H](CCCCN)NC(=O)[C@H](CCC(N)=O)NC(=O)[C@H](CO)NC(=O)[C@H](CC(=O)O)NC(=O)[C@@H](N)[C@@H](C)O)[C@@H](C)CC)C(=O)N[C@@H](CC(C)C)C(=O)N[C@@H](CC(N)=O)C(=O)N[C@@H](CC(=O)O)C(=O)N[C@@H](CC(C)C)C(=O)N[C@@H](CO)C(=O)N[C@@H](CO)C(=O)N[C@@H](CC(=O)O)C(=O)N[C@@H](C)C(=O)N1CCC[C@H]1C(=O)NCC(=O)N[C@H](C(=O)N[C@@H](CSCC(=O)Nc1ccc2c(c1)C(=O)OC21c2ccc(O)cc2Oc2cc(O)ccc21)C(N)=O)C(C)C", "note": "[KID-AB, reference compound] (H-TDSQKRREILSRRP[pS]YRKILNDLSSDAPGVC(Fluorescein(5-NHCOCH2))-NH2)", "values": [{"measurement": "ΔΔG vs wild type CBP KIX, Y658F", "setting": "CBP KIX Y658F", "value": 2.5, "unit": "kcal/mol"}, {"measurement": "ΔΔG vs wild type CBP KIX, K662A", "setting": "CBP KIX K662A", "value": 1.5, "unit": "kcal/mol"}, {"measurement": "ΔΔG vs wild type CBP KIX, L599A", "setting": "CBP KIX L599A", "value": 0.58, "unit": "kcal/mol"}, {"measurement": "ΔΔG vs wild type CBP KIX, L603A", "setting": "CBP KIX L603A", "value": 1.2, "unit": "kcal/mol"}, {"measurement": "ΔΔG vs wild type CBP KIX, Y650A", "setting": "CBP KIX Y650A", "value": 1.8, "unit": "kcal/mol"}, {"measurement": "ΔΔG vs wild type CBP KIX, LL652-3AA", "setting": "CBP KIX LL652-3AA", "value": 1.2, "unit": "kcal/mol"}, {"measurement": "ΔΔG vs wild type CBP KIX, I657A", "setting": "CBP KIX I657A", "value": 0.9, "unit": "kcal/mol"}, {"measurement": "ΔΔG vs wild type CBP KIX, K606A", "setting": "CBP KIX K606A", "value": 1.0, "unit": "kcal/mol"}, {"measurement": "ΔΔG of HisKIX binding upon phosphorylation", "setting": "[4]", "value": "> 3.2", "unit": "kcal/mol"}]}]}
